In patent US11208377B2, “3,4-disubstituted 3-cyclobutene-1,2-diones and use thereof” (ALLERGAN, INC., priority 2017, dated 2021):

Target: human CCR6 (Homo sapiens (Human), UniProt P51684)
Assay: Calcium activity assay on the FLIPR Tetra in HEK-Gqi5 cells stably expressing human CCR6 (MIP3α as positive control agonist)
Format: cell-based
Experimental: HEK-Gqi5 cells stably expressing human CCR6 were cultured in DMEM high glucose, 10% FBS, 1% PSA, 400 ug/ml geneticin and 50 ug/ml hygromycin. Appropriate positive control chemokine (MIP3α) was used as the positive control agonist for screening compound-induced calcium activity assayed on the FLIPR^Tetra. The drug plates were prepared in 384-well microplates using the EP3 and the MultiPROBE robotic liquid handling systems. Compounds disclosed herein were tested for CCR6 activity.

Chain of human CCR6 (P51684 whole entry): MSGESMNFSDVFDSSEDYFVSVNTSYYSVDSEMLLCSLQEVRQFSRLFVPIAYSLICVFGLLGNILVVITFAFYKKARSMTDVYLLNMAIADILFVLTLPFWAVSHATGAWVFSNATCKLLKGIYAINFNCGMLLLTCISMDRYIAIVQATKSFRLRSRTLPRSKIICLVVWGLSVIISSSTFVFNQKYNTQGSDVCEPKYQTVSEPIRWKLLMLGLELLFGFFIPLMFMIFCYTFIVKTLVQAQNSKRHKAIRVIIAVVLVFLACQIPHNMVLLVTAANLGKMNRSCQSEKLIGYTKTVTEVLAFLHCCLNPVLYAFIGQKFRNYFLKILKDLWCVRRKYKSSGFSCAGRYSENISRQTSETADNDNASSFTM

| SMILES | CCR6 % Antagonism | IC50 |
| --- | --- | --- |
| CCC(C)(Nc1c(Nc2ccc(Cl)c(C(=O)N(C)C)c2O)c(=O)c1=O)c1ccccc1 (stereo not shown) [Compound 72, 6-chloro-3-((3,4-dioxo-2-((2-phenylbutan-2-yl)amino)cyclobut-1-en-1-yl)amino)-2-hydroxy-N,N-dimethylbenzamide] | 95% | 46 nM |
| CN1CCN(S(=O)(=O)c2c(Cl)ccc(Nc3c(NC4c5ccoc5CCC4(C)C)c(=O)c3=O)c2O)CC1 (stereo not shown) [Compound 49, 3-((4-chloro-2-hydroxy-3-((4-methylpiperazin-1-yl)sulfonyl)phenyl)amino)-4-((5,5-dimethyl-4,5,6,7-tetrahydrobenzofuran-4-yl)amino)cyclobut-3-ene-1,2-dione] | 98% | 31 nM |
